# Measurements from patent US5686458A, “Quinazoline deriviates for treating peptic ulcer” (Yuhan Corporation, priority 1992, dated 1997).
# Where a name gives a salt, the structure may show the parent alone.
# How the values were obtained:
# [1] = molecular target: T1, Proton Pump (H^+ /K^+ ATPase) (Oryctolagus cuniculus, UniProt P27112); assay: Inhibition of Proton Pump (H+/K+ ATPase) Activity, in vitro enzyme reaction (Experiment 1); format: biochemical, New Zealand white rabbit; details: for Effect ratio: IC50 of Omeprazole / IC50 of test compound; for IC50: K+-stimulated H+/K+ ATPase activity, rabbit gastric microsomes, pH 7.2, 37° C., 15 min prereaction, 30 min reaction, read-out: IC50 of test compound, inhibition (50%) of the proton pump activity
# T1 construct: The microsomes thus obtained were used as an enzyme source of the in vitro enzyme reaction study of proton pump; from tissue; host or cells: rabbit stomach, mucosal scrapings, microsomes (180,000 g pellet)
# Protocol: A New Zealand white rabbit was killed by blowing its head and the stomach was taken out. The contents of the stomach were removed and the stomach walls were washed with was saline. The inner wall of the stomach was scratched out with a slide glass and the cells thus obtained were homogenized in 0.25M sucrose buffer by means of a Teflon-glass homogenizer. The homogenous solution was centrifuged at 10,000 g for 10 minutes and the supernatant was further centrifuged at 20,000 g for 20 minutes. The supernatant thus obtained was centrifuged at an ultra-high speed of 180,000 g for 1 hour. The pellets precipitated were collected by discarding the supernatant and suspended in 50 mM Tris-HCl buffer having pH 7.2. The suspension was dialyzed twice with the same buffer(of 1,000 times volume) for 3 hours and stored into liquid nitrogen.
# The above centrifugation and dialysis were carried out at 4° C. The microsomes thus obtained were used as an enzyme source of the in vitro enzyme reaction study of proton pump.
# The inhibitory effects of proton pump activity by the compounds of the present invention were measured by the in vitro enzyme reaction study. The proton pump activity stimulated by Mg^++ was used as a negative comparative group, and the activity stimulated by Mg^++ and K^+ was used as a positive comparative group. The comparative compound was omeprazole.
# Test tubes were divided into 4 groups: Group 1 as negative comparative group(n=3), Group 2 as positive comparative group(n=3), Group 3(n=5) to be administered with the compound of the present invention and Group 4(n=5) to be administered with the comparative compound. The inhibitory effects of proton pump activity of Groups 3 and 4 were measured by employing the compound prepared in Example 34 and omeprazole, respectively, each of which was dissolved in dimethylsulfoxide at 5 different concentrations.
# To each of Groups 1, 2, 3 and 4, were added 0.1 ml of magnesium chloride(40 mM) dissolved in 50 mM Tris-HCl buffer (pH 7.2) and […] of the enzyme source prepared in Experiment 1-1. Then, 0.1 ml of potassium chloride(500 mM) and 0.1 ml of ammonium chloride(100 mM) dissolved in 50 mM Tris-HCl buffer(pH 7.2) were added to all groups except for Group 1.
# 0.1 ml of dimethylsulfoxide was added to each of Groups 1 and 2; and to Group 3 was added 0.01 ml of the solution in which the compound prepared in Example 34 was dissolved in dimethylsulfoxide at 5 different concentrations. To Group 4, 0.01 ml of the solution prepared by dissolving omprazole in dimethylsulfoxide at 5 different concentrations(37.6, 21.4, 12.2, 7.0 and 4.0 μM) was added. 50 mM Tris-HCl buffer was added thereto so as to make the total volume 0.4 ml.
# Thereafter, the test tubes of each Group were placed at 37° C. for 15 minutes for the prereaction. 0.1 ml of ATP solution(33.3 mM), which was prepared by adding Tris-ATP 50 mM to Tris-HCl buffer having pH 7.2, was added until the reaction volume became 0.5 ml. The final concentrations of MgCl2, KCl, NH4 Cl, ATP, enzyme and Tris-HCl were 8 mM, 100 mM, 20 mM, 6.7 mM, 100μg/ml and 50 mM, respectively. After the reaction was carried out at 37° C. for 30 minutes, 25% cold trichloroacetic acid was added to terminate the enzyme reaction. The released inorganic phosphate was measured by an automatic analyzer(SBA 300, Gilford).
# The difference between Group 1 and Group 2 represents the proton pump activity activated by K^+ only. The inhibition percentages of Groups 3 and 4 were calculated from Litchfield-wilcoxon equation[see J. Pharmacol. Exptl. Ther. 96, 99(1949)]. The concentrations of the test compounds which inhibit 50% of the proton pump activity are represented as IC50 in Table 1.
# gastric secretion = assay: Inhibition of Gastric Secretion, pylorus-ligated rats (Experiment 2); format: in vivo, Sprague-Dawley rats; details: relative to omeprazole (equation III), 20 mg/kg intraduodenally, pylorus-ligated rats, 5 hours
# Protocol: In accordance with the method disclosed in Shay, H., et al., Gastroenterology 5, 43-61(1945), Experiment 2 was carried out.
# Sprague-Dawley rats having a body weight of 170±10 g were divided into 3 groups(n=5) and deprived of food for 24 hours before the experiment with free access to water. Under ether anesthesia, the abdomen was incised, and the pylorus was ligated. As a comparative group, Group 1 was administered intraduodenally in a volume of 0.5 ml/200 g of 30% aqueous polyethylene glycol 400 solution. Groups 2 and 3 were administered intraduodenally with the compound of Example 34 and omeprazole, respectively, each of which was suspended in 30% aqueous polyethylene glycol 400 solution at a concentration of 20 mg/kg. After closing the abdominal cavity, the rats were placed for 5 hours and then killed by cervical dislocation. The stomach was extracted to obtain gastric juice.
# The gastric juice was centrifuged at 1,000 g to remove precipitates. The amount and acidity of the gastric juice were measured. Relative volumes, relative acid concentrations and relative acid outputs of the test compounds were calculated from equations(I), (II) and (III) and the results are shown in Table 2.
# (I) = the average amount of gastric juice of Group 1 - the
# average amount of gastric juice of Group 2)/(the average
# amount of gastric juice of Group 1 - the average amount
# of gastric juice of Group 3)
# Relative acid concentration
# (II) = (the average acidity of Group 1 - the average
# acidity of Group 2)/(the average acidity of Group 1 - the average
# (III) = (the total amount of acid output of Group 1 - the
# total amount of acid output of Group 2)/(the total amount of acid
# output of Group 1 - the total amount of acid output of Group
# T1 sequence (P27112 whole entry): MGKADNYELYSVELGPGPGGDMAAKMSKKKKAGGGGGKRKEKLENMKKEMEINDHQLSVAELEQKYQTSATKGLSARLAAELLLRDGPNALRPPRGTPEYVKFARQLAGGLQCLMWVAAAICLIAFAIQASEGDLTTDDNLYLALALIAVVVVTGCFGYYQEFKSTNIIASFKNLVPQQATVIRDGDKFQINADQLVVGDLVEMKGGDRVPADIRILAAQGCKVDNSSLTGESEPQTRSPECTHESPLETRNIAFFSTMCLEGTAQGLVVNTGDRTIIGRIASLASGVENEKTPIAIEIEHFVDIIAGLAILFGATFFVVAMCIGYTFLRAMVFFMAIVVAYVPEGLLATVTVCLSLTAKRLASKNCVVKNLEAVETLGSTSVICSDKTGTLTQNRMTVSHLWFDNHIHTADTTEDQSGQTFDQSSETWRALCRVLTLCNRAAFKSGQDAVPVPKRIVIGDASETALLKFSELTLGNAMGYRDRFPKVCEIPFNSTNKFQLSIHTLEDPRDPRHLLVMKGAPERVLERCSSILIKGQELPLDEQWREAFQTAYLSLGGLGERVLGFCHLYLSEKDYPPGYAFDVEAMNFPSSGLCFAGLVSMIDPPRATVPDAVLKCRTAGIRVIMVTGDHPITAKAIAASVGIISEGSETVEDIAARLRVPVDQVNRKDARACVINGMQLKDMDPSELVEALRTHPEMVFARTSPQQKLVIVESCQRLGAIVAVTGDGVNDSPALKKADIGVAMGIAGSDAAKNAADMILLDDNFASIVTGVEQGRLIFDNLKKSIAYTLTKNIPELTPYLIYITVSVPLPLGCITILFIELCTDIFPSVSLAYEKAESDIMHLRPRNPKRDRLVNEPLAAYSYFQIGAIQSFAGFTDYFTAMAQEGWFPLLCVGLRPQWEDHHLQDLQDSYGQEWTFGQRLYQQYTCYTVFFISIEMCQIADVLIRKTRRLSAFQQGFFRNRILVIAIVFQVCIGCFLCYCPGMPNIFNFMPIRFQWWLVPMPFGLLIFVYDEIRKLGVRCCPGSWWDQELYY
# T1 sequence (P18597 whole entry partner): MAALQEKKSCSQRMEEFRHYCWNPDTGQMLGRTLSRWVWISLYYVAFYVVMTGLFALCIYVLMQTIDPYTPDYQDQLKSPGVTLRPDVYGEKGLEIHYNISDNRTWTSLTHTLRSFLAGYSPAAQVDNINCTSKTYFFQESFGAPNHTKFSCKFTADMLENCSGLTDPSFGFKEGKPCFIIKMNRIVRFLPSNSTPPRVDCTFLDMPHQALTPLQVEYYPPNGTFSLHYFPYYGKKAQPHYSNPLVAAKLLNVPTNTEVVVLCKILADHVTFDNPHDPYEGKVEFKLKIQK
SMILES,Effect ratio [1],IC50 [1] [µM],Relative Acid Output (gastric secretion)
"COc1cccc2c(N3CCc4cc(C)ccc4C3C)nc(Nc3ccc(F)cc3)nc12.Cl (stereo not drawn) [Example 54, 2-(4-Fluorophenylamino)-8-Methoxy-4-(1,6-Dimethyl-1,2,3,4-Tetrahydroisoquinoline-2-Yl)Quinazoline Hydrochloride]",~ 0.64,~12.5,0.82
"COc1cccc2c(N3CC(C)c4ccccc4C3C)nc(Nc3ccc(F)cc3)nc12.Cl (stereo not drawn) [Example 56, 2-(4-Fluorophenylamino)-8-Methoxy-4-(1,4-Dimethyl-1,2,3,4-Tetrahydroisoquinoline-2-Yl)Quinazoline Hydrochloride]",< 0.60,> 12.5,0.85
"CC1c2ccccc2CCN1c1nc(N(C)c2ccccc2)nc2ccccc12.Cl (stereo not drawn) [Example 24, 2-(N-Methylphenylamino)-4-(1-Methyl-1,2,3,4-Tetrahydroisoquinoline-2-Yl)Quinazoline Hydrochloride]",~ 1.29,~12.5,0.36
"COc1cccc2c(N3CCc4cccc5c4C3CC5)nc(Nc3ccc(F)cc3)nc12.Cl (stereo not drawn) [Example 58, 8-Methoxy-2-(4-Fluorophenyl-Amino)-4-(1,8-Ethano-1,2,3,4-Tetrahydroisoquinoline-2-Yl)Quinazoline Hydrochloride]",0.65,13.6,0.94
"COc1cccc2c(N3CCc4ccccc4C3)nc(N(C)c3ccc(F)cc3)nc12.Cl [Example 32, 8-Methoxy-2-(4-Fluoro-N-Methyl-Phenylamino)-4-(1,2,3,4-Tetrahydroisoquinoline-2-Yl) Quinazoline Hydrochloride]",> 0.58,> 16,0.43
"COc1cccc2c(N3CCc4ccccc4C3CF)nc(Nc3ccc(F)cc3)nc12.Cl (stereo not drawn) [Example 43, 2-(4-Fluorophenylamino)-8-Methoxy-4-(1-Fluoromethyl-1,2,3,4-Tetrahydroisoquinoline-2-Yl)Quinazoline Hydrochloride]",< 0.97,> 12.5,0.76
"CN(c1ccc(F)cc1)c1nc(N2CCc3ccccc3C2)c2ccccc2n1.Cl [Example 20, 2-(4-Fluoro-N-Methylphenyl-Amino)-4-(1,2,3,4-Tetrahydroisoquinoline-2-Yl)Quinazoline Hydrochloride]",1.10,8.4,0.92

# The next molecules have a lower IC50 [1] than those just listed; values first:
Effect ratio [1],IC50 [1] [µM],SMILES,Relative Acid Output (gastric secretion)
1.47,4.9,"COc1cccc2c(N3CCc4ccccc4C3)nc(N(C)c3ccccc3)nc12.Cl [Example 29, 8-Methoxy-2-(N-Methylphenyl-Amino)-4-(1,2,3,4-Tetrahydroisoquinoline-2-Yl)Quinazoline Hydrochloride]",0.84
61.67,0.6,"Cl.c1ccc(Nc2nc(N3CCc4ccccc4C3)c3ccccc3n2)cc1 [Example 18, 2-(Phenylamino)-4-(1,2,3,4-Tetrahydroisoquinoline-2-Yl)Quinazoline Hydrochloride]",0.29
5.13,2,"COc1cccc2c(N3CCc4ccccc4C3)nc(Nc3ccc(F)cc3C)nc12.Cl [Example 31, 8-Methoxy-2-(4-Fluoro-2-Methyl -Phenylamino)-4-(1,2,3,4-Tetrahydroisoquinoline-2-yl) Quinazoline Hydrochloride]",0.79
0.68,~6,"CCC1c2ccccc2CCN1c1nc(Nc2ccc(F)cc2C)nc2c(OC)cccc12.Cl (stereo not drawn) [Example 46, 8-Methoxy-2-(2-Methyl-4-Fluoro-Phenylamino)-4-(1-Ethyl-1,2,3,4-Tetrahydroisoquinoline-2-Yl)Quinazoline Hydrochloride]",0.11
4.30,2,"Fc1ccc(Nc2nc(N3CCc4ccccc4C3)c3ccccc3n2)cc1 [Example 23, 2-(4-Fluorophenylamino)-4-(1,2,3,4-Tetrahydroisoquinoline-2-Yl)QuinazolineHydrochloride]",0.44
3.27,2.2,"COc1cccc2c(N3CCc4ccccc4C3)nc(Nc3ccc(F)cc3)nc12.Cl [Example 30, 8-Methoxy-2-(4-Fluorophenyl-Amino)-4-(1,2,3,4-Tetrahydroisoquinoline-2-Yl)Quinazoline Hydrochloride]",0.76
4.42,2.1,"COc1cccc2c(N3CCc4ccccc4C3C)nc(Nc3ccc(F)cc3C)nc12.O=C(O)CC(O)C(=O)O (stereo not drawn) [Example 61, 2-(4-Fluoro-2-Methylphenyl-Amino)-8-Methoxy-4-(1-Methyl-1,2,3,4-Tetrahydroisoquinoline-2-Yl)Quinazoline Malate]",0.76
1.28,4,"COc1cccc2c(N3CCc4ccccc4[C@@H]3C)nc(Nc3ccc(F)cc3C)nc12.Cl [Example 36, (S)-8-Methoxy-2-(4Fluoro-2-Methylphenylamino)-4-(1-Methyl-1,2,3,4-Tetrahydroisoquinoline-2-Yl)Quinazoline Hydrochloride]",0.67
1.22,6.05,"COc1cccc2c(N3CCc4ccccc4C3(C)C)nc(Nc3ccc(F)cc3)nc12.Cl [Example 50, 2-(4-Fluorophenylamino)-8-Methoxy-4-(1,1-Dimethyl-1,2,3,4-Tetrahydroisoquinoline-2-Yl)Quinazoline Hydrochloride]",0.82
1.22,2.3,"COc1cccc2c(N3CCc4ccccc4C3C)nc(Nc3ccc(F)cc3)nc12.Cl (stereo not drawn) [Example 33, 8-Methoxy-2-(4-Fluorophenyl-Amino)-4-(1-Methyl-1,2,3,4-Tetrahydroisoquinoline-2-Yl) Quinazoline Hydrochloride]",0.79
2.83,1.8,"COc1cccc2c(N3CCc4ccccc4[C@H]3C)nc(Nc3ccc(F)cc3C)nc12.Cl [Example 35, (R)-8-Methoxy-2-(4-Fluoro-2-Methylphenylamino)-4-(1-Methyl-1,2,3,4-Tetrahydroisoquinoline-2-Yl)Quinazoline Hydrochloride]",0.79
